{"source": "patent US10696686B2", "about": "“Herbicidally active (alkynyl-phenyl)-substituted cyclic dione compounds and derivatives thereof” (Syngenta Limited, priority 2013, dated 2020)", "type_in_all_cases": "in vivo", "key": {"[1]": {"system": "Echinochloa crus-galli (ECHCG)", "test": "Biological Example 2 glasshouse assay (IF50 formulation, X-77), post-emergence", "conditions": "14 or 15 DAA", "description": "(§1) Seeds of a variety of monocotyledonous and dicotyledonous test plants are sown in standard soil in pots. The plants are cultivated for one day (for pre-emergence) or for about 12 days (range=10-13 days) (for post-emergence) under controlled conditions in a glasshouse (warm climate species at 24/18° C., cool climate species at 20/16° C., both at day/night; 16 hours light; 65% humidity). An “instant formulation”, known as the “IF50”, containing 50 g/litre (i.e. 5% w/v) of the “technical” (i.e. unformulated) active ingredient is prepared by dissolving the active ingredient in a mixture of organic solvents and emulsifier, details of which are provided in the Table below. This IF50 is then mixed with a small, variable amount of acetone to aid dissolution, before addition of a 0.2% v/v aqueous solution of the adjuvant X-77 (which is a mixture of alkyl aryl polyoxyethylene glycols and free fatty acids in isopropanol, CAS Registry number 11097-66-8), as the aqueous diluent, to form an aqueous spray solution which contains a predetermined concentration of the active ingredient (which varies depending on the application rate of the active ingredient to the plants) and 0.2% v/v of the adjuvant X-77. This aqueous spray solution is then sprayed onto the plants, after one day's cultivation (for pre-emergence) or after about 12 days' cultivation (for post-emergence).\n(§2) The test plants are then grown on, in a glasshouse (greenhouse) under controlled conditions (at either 24/18° C. or 20/16° C. (day/night) as mentioned above; 16 hours light; 65% humidity) and are watered twice daily. Either 14 or 15 days after application of the herbicide (14 or 15 DAA) (for post-emergence), or 20 days after application of the herbicide (20 DAA) (for pre-emergence), the test plants are evaluated visually, and an assessed percentage phytotoxicity score is given for each herbicidal application on each plant species (where 100%=total damage to plant; 0%=no damage to plant). Some of the typical test plants are as follows: Cool climate crop plants: Triticum aestivum (TRZAW, winter wheat), Brassica napus (BRSNN, rape, also called oilseed rape or rapeseed), Beta vulgaris (BEAVA, sugarbeet). Warm climate crop plants: Glycine max (GLXMA, soybean). Cool climate (“cool season”) grassy monocotyledonous weeds: Alopecurus myosuroides (ALOMY), Avena fatua (AVEFA), Lolium perenne (LOLPE), Poa annua (POAAN), Bromus tectorum (BROTE). Warm climate (“warm season”) grassy monocotyledonous weeds: Setaria faberi (SETFA), SORVU (Sorghum bicolor (L.) Moench ssp. Bicolor, or Sorghum vulgare Pers.), Digitaria sanguinalis (DIGSA), Echinochloa crus-galli (ECHCG), Brachiaria plantaginea (BRAPL), Zea mays (ZEAMX, corn, maize, e.g. volunteer corn), Panicum miliaceum (PANMI)."}, "[2]": {"system": "Digitaria sanguinalis (DIGSA)", "test": "Biological Example 2 glasshouse assay (IF50 formulation, X-77), post-emergence", "conditions": "14 or 15 DAA", "description": "as §1, §2"}, "[3]": {"system": "Glycine max (GLXMA, soybean)", "test": "Biological Example 2 glasshouse assay (IF50 formulation, X-77), post-emergence", "conditions": "for percentage phytotoxicity score GLXMA: post-emergence, 14 or 15 DAA", "description": "as §1, §2"}, "[4]": {"system": "Brassica napus (BRSNN, rape)", "test": "Biological Example 2 glasshouse assay (IF50 formulation, X-77), post-emergence", "conditions": "14 or 15 DAA", "description": "as §1, §2"}, "[5]": {"system": "Alopecurus myosuroides (ALOMY)", "test": "Biological Example 2 glasshouse assay (IF50 formulation, X-77), post-emergence", "conditions": "14 or 15 DAA", "description": "as §1, §2"}, "[6]": {"system": "Triticum aestivum (TRZAW, winter wheat)", "test": "Biological Example 2 glasshouse assay (IF50 formulation, X-77), post-emergence", "conditions": "for percentage phytotoxicity score TRZAW: 14 or 15 DAA", "description": "as §1, §2"}, "[7]": {"system": "SORVU (Sorghum bicolor (L.) Moench ssp. Bicolor, or Sorghum vulgare Pers.)", "test": "Biological Example 2 glasshouse assay (IF50 formulation, X-77), post-emergence", "conditions": "14 or 15 DAA", "description": "as §1, §2"}, "[8]": {"system": "Avena fatua (AVEFA)", "test": "Biological Example 2 glasshouse assay (IF50 formulation, X-77), post-emergence", "conditions": "14 or 15 DAA", "description": "as §1, §2"}, "[9]": {"system": "Setaria faberi (SETFA)", "test": "Biological Example 2 glasshouse assay (IF50 formulation, X-77), post-emergence", "conditions": "14 or 15 DAA", "description": "as §1, §2"}, "[10]": {"system": "Zea mays (ZEAMX, corn, maize, e.g. volunteer corn)", "test": "Biological Example 2 glasshouse assay (IF50 formulation, X-77), post-emergence", "conditions": "14 or 15 DAA", "description": "as §1, §2"}, "[11]": {"system": "Lolium perenne (LOLPE)", "test": "Biological Example 2 glasshouse assay (IF50 formulation, X-77), post-emergence", "conditions": "14 or 15 DAA", "description": "as §1, §2"}, "[12]": {"system": "Echinochloa crus-galli (ECHCG)", "test": "Biological Example 1B glasshouse assay, pre-emergence application", "conditions": "250 g/ha, 13 days after application", "description": "(§3) Seeds of a variety of test plant species were sown in standard soil ** in pots. After cultivation for one day (pre-emergence) or after 8 days cultivation (post-emergence) under controlled conditions in a glasshouse (at 24/16° C., day/night; 14 hours light; 65% humidity), the plants were sprayed with an aqueous spray solution derived from the formulation of the technical active ingredient (the test herbicide) in acetone/water (50:50) solution containing 0.5% Tween 20 (polyoxyethylene sorbitan monolaurate, CAS Reg. No. 9005-64-5). The test plants were then grown on under controlled conditions in a glasshouse (at 24/16° C., day/night; 14 hours light; 65% humidity) and watered twice daily. 13 Days after application of the test herbicide, for pre- and post-emergence, the test was evaluated visually for percentage phytotoxicity to each plant (where 100%=total damage to plant; 0%=no damage to plant). Generally, each test herbicide is only tested on 1 plant per plant species for each application rate tested and for each application timing. ** The “standard soil” in Biological Example 1 is usually a “sand” or “sandy loam” type of soil.\n(§4) Dicotyledonous weeds: ABUTH=Abutilon theophrasti; AMARE=Amaranthus retroflexus. Grassy monocotyledonous weeds: SETFA=Setaria faberi; ALOMY=Alopecurus myosuroides; ECHCG=Echinochloa crus-galli; ZEAMX=Zea mays (corn, maize, e.g. volunteer corn). For Compound A16, the grassy monocotyledonous weed LOLPE (Lolium perenne) was used in the test insterad of ALOMY."}, "[13]": {"system": "Alopecurus myosuroides (ALOMY)", "test": "Biological Example 1B glasshouse assay, pre-emergence application", "conditions": "250 g/ha, 13 days after application", "description": "as §3, §4"}, "[14]": {"system": "Abutilon theophrasti (ABUTH)", "test": "Biological Example 1B glasshouse assay, pre-emergence application", "conditions": "250 g/ha, 13 days after application", "description": "as §3, §4"}, "[15]": {"system": "Setaria faberi (SETFA)", "test": "Biological Example 1B glasshouse assay, pre-emergence application", "conditions": "250 g/ha, 13 days after application", "description": "as §3, §4"}, "[16]": {"system": "Zea mays (ZEAMX, corn, maize, e.g. volunteer corn)", "test": "Biological Example 1B glasshouse assay, pre-emergence application", "conditions": "250 g/ha, 13 days after application", "description": "as §3, §4"}, "[17]": {"system": "Amaranthus retroflexus (AMARE)", "test": "Biological Example 1B glasshouse assay, pre-emergence application", "conditions": "250 g/ha, 13 days after application", "description": "as §3, §4"}, "[18]": {"conditions": "125 g/ha (rate taken from row order)"}, "[19]": {"conditions": "250 g/ha (rate taken from row order)"}}}
{"smiles": "C#CCC1CC(=O)C(c2c(F)cc(C#CC)cc2OC)C1=O", "note": "(stereo not drawn) [Compound A8, 2-(2-fluoro-6-methoxy-4-prop-1-ynyl-phenyl)-4-prop-2-ynyl-cyclopentane-1,3-dione]", "values": [{"measurement": "percentage phytotoxicity score ECHCG", "setting": "[1]; [18]", "result": 100, "unit": "%"}, {"measurement": "percentage phytotoxicity score ECHCG", "setting": "[1]; [19]", "result": 100, "unit": "%"}, {"measurement": "percentage phytotoxicity score DIGSA", "setting": "[2]; [18]", "result": 100, "unit": "%"}, {"measurement": "percentage phytotoxicity score DIGSA", "setting": "[2]; [19]", "result": 100, "unit": "%"}, {"measurement": "phytotoxicity against soybean (in words)", "setting": "[3]; e.g. when applied at 30 g/ha post-emergence, see Biological Example 2", "result": "low or reasonably low phytotoxicity"}, {"measurement": "percentage phytotoxicity score GLXMA", "setting": "[3]; 125 g/ha", "result": 10, "unit": "%"}, {"measurement": "percentage phytotoxicity score GLXMA", "setting": "[3]; 250 g/ha", "result": 30, "unit": "%"}, {"measurement": "percentage phytotoxicity score BRSNN", "setting": "[4]; 125 g/ha", "result": 40, "unit": "%"}, {"measurement": "percentage phytotoxicity score BRSNN", "setting": "[4]; 250 g/ha", "result": 60, "unit": "%"}, {"measurement": "percentage phytotoxicity score ALOMY", "setting": "[5]; 125 g/ha", "result": 50, "unit": "%"}, {"measurement": "percentage phytotoxicity score ALOMY", "setting": "[5]; 250 g/ha", "result": 70, "unit": "%"}, {"measurement": "percentage phytotoxicity score TRZAW", "setting": "[6]; 125 g/ha", "result": 50, "unit": "%"}, {"measurement": "percentage phytotoxicity score TRZAW", "setting": "[6]; 250 g/ha", "result": 70, "unit": "%"}, {"measurement": "phytotoxicity against wheat (in words)", "setting": "[6]; relative to herbicidal activity against warm-climate grassy weeds, Biological Example 2", "result": "medium or reasonably low phytotoxicity"}, {"measurement": "percentage phytotoxicity score SORVU", "setting": "[7]; [18]", "result": 100, "unit": "%"}, {"measurement": "percentage phytotoxicity score SORVU", "setting": "[7]; [19]", "result": 100, "unit": "%"}, {"measurement": "percentage phytotoxicity score AVEFA", "setting": "[8]; [18]", "result": 30, "unit": "%"}, {"measurement": "percentage phytotoxicity score AVEFA", "setting": "[8]; [19]", "result": 70, "unit": "%"}, {"measurement": "percentage phytotoxicity score SETFA", "setting": "[9]; [18]", "result": 90, "unit": "%"}, {"measurement": "percentage phytotoxicity score SETFA", "setting": "[9]; [19]", "result": 100, "unit": "%"}, {"measurement": "percentage phytotoxicity score ZEAMX", "setting": "[10]; 125 g/ha", "result": 100, "unit": "%"}, {"measurement": "percentage phytotoxicity score ZEAMX", "setting": "[10]; 250 g/ha", "result": 100, "unit": "%"}, {"measurement": "percentage phytotoxicity score LOLPE", "setting": "[11]; [18]", "result": 30, "unit": "%"}, {"measurement": "percentage phytotoxicity score LOLPE", "setting": "[11]; [19]", "result": 80, "unit": "%"}, {"measurement": "Percentage phytotoxicity ECHCG", "setting": "[12]", "result": 100, "unit": "%"}, {"measurement": "Percentage phytotoxicity ALOMY", "setting": "[13]", "result": 90, "unit": "%"}, {"measurement": "Percentage phytotoxicity ABUTH", "setting": "[14]", "result": 0, "unit": "%"}, {"measurement": "Percentage phytotoxicity SETFA", "setting": "[15]", "result": 90, "unit": "%"}, {"measurement": "Percentage phytotoxicity ZEAMX", "setting": "[16]", "result": 100, "unit": "%"}, {"measurement": "Percentage phytotoxicity AMARE", "setting": "[17]", "result": 0, "unit": "%"}]}
